Data reported in patent US20060143838A1, “Herbal dye and process of preparation thereof” (COUNCIL OF SCIENTIFIC & INDUSTRIAL RESEARCH, priority 2004, published 2006).

Assays:
Candida albicans = test: Antifungal activity of herbal black dye (disc, inhibition zone); type: cell-based; details: 25 mg/disc
Aspergillus niger = test: as above; type: cell-based; details: 25 mg/disc

Work on `COC1=CC(=O)C[C@@H](C)[C@]12Oc1c(Cl)c(OC)cc(OC)c1C2=O` [Griseofulvin] yielded an inhibition zone (Candida albicans) of 8 mm and an inhibition zone (Aspergillus niger) of 10 mm.
